Reference: paper PMC10951960, “CGP7930 - An allosteric modulator of GABABRs, GABAARs and inwardly-rectifying potassium channels” (Neuropharmacology, 2023)

How the values were obtained:
[1] = target: T1, GABABR (Rattus norvegicus, UniProt O88871+Q9Z0U4); assay: GABABR antagonism by CGP55845 in hippocampal whole-cell recording; type: cell-based; settings: n = 6, data not shown; read-out: IC50 of GABABR antagonist under our recording conditions
T1 construct: endogenous in cells; host or cells: cultured rat (E18 Sprague-Dawley) hippocampal neurons, 12-17 DIV

[2] = system: GABAAR-mediated tonic inhibition in hippocampal neurons; assay: tonic inhibition: baseline holding current and RMS noise in cultured hippocampal neurons; type: cell-based, rat; settings: Control to Bic (50 μM bicuculline)
Experimental: (§1) Briefly, single cells derived from dissected hippocampi were seeded onto glass coverslips coated with poly-D-lysine in a plating medium containing minimum essential media with 5% v/v heat-inactivated FCS, 5% v/v heat-inactivated horse serum, penicillin-G/streptomycin (100 U/100 μg/ml), 2 mM L-glutamine, and 20 mM glucose. Two hr after plating the media was changed to a Neurobasal-A based maintenance media supplemented with 1% v/v B-27, penicillin-G/streptomycin (100 U/100 μg/ml), 0.5% v/v Glutamax and 35 mM glucose.
(§2) Spontaneous inhibitory postsynaptic currents (sIPSCs) were recorded from cultured hippocampal neurons at 12–17 days in vitro (DIV). […] For recording K^+ currents in GIRK cells and neurons, the bath solution was switched to a high K^+ solution containing 25 mM KCl and reduced NaCl (120 mM), to shift the equilibrium potential for K^+ from approximately −90 to −47 mV, thus reversing the direction of K^+ current flux to net inward. GABABR-activated K^+ currents in cultured neurons were recorded in the additional presence of 2 mM kynurenic acid and 20 μM picrotoxin.
(§3) Borosilicate glass electrodes (3–5 MΩ) were filled with a K^+-based internal solution for recording GIRK currents containing (mM): 120 KCl, 2 MgCl2, 11 EGTA, 30 KOH, 10 HEPES, 1 CaCl2, 1 GTP, 2 ATP, 14 creatine phosphate, pH 7.0. GABAAR currents and sIPSCs were recorded with a Cs-based internal solution containing (mM): 120 CsCl, 1 MgCl2, 11 EGTA, 30 KOH, 10 HEPES, 1 CaCl2, and 2 K2ATP; pH 7.2. […] Cells were held at −60 mV (sIPSCs) or −60/−70 mV (K^+ currents). Voltage clamp recordings were undertaken after optimising series resistance (Rs, <10 MΩ) and compensating for the whole-cell membrane capacitance. Membrane currents were filtered at 5 kHz (−3 dB, 6th pole Bessel, 36 dB/octave) and stored for analysis with Clampex 10.
For tonic inhibition, to determine the average holding currents, a 30 s continuous holding current recording was sampled every 1 s, discarding epochs that coincided with sIPSCs. Any effect of CGP7930 or bicuculline on the holding current was defined by subtracting the average holding currents in control and during drug application. The baseline root-mean-square current variance (RMS) was calculated before and during drug treatment. This was estimated from a continuous (20 s) current recording, sampled every 100 ms. The median current was calculated every 5 s and values more than twice the standard deviation from the median (usually due to IPSCs) were eliminated. All drugs were applied using a U-tube rapid drug application system, or more slowly via bath perfusion.
We assessed the effect of CGP7930 on tonic inhibition in hippocampal cultured neurons.

[3] = system: GABAARs in hippocampal neurons; assay: slow inward current directly activated by CGP7930 in hippocampal neurons in high K+ external solution and its block by GABAAR antagonists; type: cell-based, rat; settings: antagonist 100 μM, P < 0.001
Experimental: as §2
CGP7930 modulation at neuronal GABABRs was also characterised using baclofen-activated GIRK currents in hippocampal cultures similarly bathed in a high external K^+ concentration.

[4] = system: native GABAARs in hippocampal neurons; assay: muscimol-activated and CGP7930-activated GABAAR currents in hippocampal neurons, Cs+-based internal solution; type: cell-based, rat; settings: read-out: muscimol EC50; hippocampal neurons, n = 9
Experimental: as §1, §2, §3
Concentration-response curves were generated by measuring the current (I) for each ligand concentration and normalising to the maximal current response (Imax).

T1 sequence (Q9Z0U4 17-960 limits assumed): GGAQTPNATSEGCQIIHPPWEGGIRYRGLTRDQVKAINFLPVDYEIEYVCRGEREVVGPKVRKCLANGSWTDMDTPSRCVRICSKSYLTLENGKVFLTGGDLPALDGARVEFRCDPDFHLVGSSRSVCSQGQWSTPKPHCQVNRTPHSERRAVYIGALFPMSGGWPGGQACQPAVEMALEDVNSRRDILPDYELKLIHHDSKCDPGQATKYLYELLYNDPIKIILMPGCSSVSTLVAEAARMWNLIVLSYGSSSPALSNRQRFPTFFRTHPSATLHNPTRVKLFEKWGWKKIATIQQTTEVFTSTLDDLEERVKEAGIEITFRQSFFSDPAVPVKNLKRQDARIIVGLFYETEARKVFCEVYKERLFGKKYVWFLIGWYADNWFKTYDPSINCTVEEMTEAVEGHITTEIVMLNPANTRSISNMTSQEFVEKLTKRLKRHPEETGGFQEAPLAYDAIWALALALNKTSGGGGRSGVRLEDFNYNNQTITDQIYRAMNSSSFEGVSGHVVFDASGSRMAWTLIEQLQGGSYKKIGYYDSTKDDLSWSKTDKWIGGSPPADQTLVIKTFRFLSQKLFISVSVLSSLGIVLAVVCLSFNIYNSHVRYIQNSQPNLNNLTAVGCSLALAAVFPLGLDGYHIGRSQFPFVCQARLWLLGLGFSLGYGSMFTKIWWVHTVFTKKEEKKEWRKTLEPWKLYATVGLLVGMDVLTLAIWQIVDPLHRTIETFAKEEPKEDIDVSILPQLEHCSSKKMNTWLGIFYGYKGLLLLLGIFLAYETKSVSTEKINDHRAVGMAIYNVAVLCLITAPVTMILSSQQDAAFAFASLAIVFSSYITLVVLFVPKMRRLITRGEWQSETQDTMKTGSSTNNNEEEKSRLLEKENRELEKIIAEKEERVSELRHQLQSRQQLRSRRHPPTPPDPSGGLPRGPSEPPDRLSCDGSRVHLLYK
T1 sequence (O88871 41-940): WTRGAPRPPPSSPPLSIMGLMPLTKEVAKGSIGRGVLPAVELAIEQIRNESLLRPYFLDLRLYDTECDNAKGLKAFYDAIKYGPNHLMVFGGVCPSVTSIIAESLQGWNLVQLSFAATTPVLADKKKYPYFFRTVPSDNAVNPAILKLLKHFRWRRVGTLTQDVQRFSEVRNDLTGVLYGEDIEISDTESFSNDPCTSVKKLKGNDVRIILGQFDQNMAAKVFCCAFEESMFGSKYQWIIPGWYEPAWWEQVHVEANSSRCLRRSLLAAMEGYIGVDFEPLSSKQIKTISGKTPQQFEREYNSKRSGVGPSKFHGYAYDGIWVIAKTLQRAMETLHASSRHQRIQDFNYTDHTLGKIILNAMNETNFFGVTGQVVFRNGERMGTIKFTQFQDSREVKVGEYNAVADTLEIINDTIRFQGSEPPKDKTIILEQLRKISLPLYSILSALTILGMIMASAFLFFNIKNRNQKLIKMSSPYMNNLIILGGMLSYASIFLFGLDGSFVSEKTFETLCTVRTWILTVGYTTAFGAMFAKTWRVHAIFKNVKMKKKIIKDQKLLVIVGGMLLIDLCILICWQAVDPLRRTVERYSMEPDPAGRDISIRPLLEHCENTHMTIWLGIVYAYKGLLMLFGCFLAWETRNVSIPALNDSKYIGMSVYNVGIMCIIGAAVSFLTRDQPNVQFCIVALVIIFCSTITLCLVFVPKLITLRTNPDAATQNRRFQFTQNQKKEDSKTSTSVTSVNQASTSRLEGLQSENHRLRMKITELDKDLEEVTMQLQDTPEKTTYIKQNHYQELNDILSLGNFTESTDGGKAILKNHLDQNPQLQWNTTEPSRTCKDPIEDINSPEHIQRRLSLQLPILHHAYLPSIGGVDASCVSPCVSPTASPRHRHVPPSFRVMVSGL

C[C@H](NC[C@H](O)CP(=O)(O)Cc1ccccc1)c1ccc(Cl)c(Cl)c1 [CGP55845]
IC50 [1]: 10 ± 0.7 nM

CN1CCc2cc3c(cc2[C@H]1[C@@H]1OC(=O)c2c1ccc1c2OCO1)OCO3 [bicuculline]
Tonic currents (change in baseline holding current) [2]: 38.02 ± 7.43 (6) pA
effect on the slow inward current caused by > 3 μM CGP7930 [3]: abolished

NCc1cc(=O)[nH]o1 [muscimol]
EC50 [4]: 2700 ± 100 nM

picrotoxin
effect on the slow inward current caused by > 3 μM CGP7930 [3]: abolished
